Test results: publication PMC8048383 (Cancer cell, 2021)

Columns and labels:
SCLC cells = assay: MIPE 5.0 library combination screen with indotecan, pairs ranked by ExcessHSA; assay type: cell-based, human; conditions: in combination with indotecan (LMP400)
[1] = tested on: TOP1 DNA-protein crosslinks (TOP1-DPCs) in DMS114 cells; assay: in vivo complex of enzyme; assay type: cell-based, human
[2] = tested on: replication protein A (RPA) S33 phosphorylation; assay: Western blot of RPA phosphorylation; assay type: cell-based, human
DMS114 cells = assay: flow cytometry EdU incorporation and cell cycle analysis; assay type: cell-based, human; conditions: M6620 with topotecan; forced progression to G2/M phase
[3] = tested on: DMS114 and H209 SCLC cell models; assay: replication; assay type: cell-based, human
[4] = plasma pharmacokinetics in trial patients; assay type: in vivo, human; conditions: cycle 1, suggesting absence of drug-drug interactions
pCHK1 (Ser345) = assay: pharmacodynamics of pCHK1; assay type: in vivo, mice; conditions: M6620 10, 20 and 30 mg/kg i.v. with 50 mg/kg irinotecan i.p.; 1-24 h
[5] = tested on: platinum-resistant SCLC patients; conditions: second-line lurbinectedin; ref Trigo et al., 2020; cited from earlier work
[6] = tested on: patients with platinum-resistant SCLC; conditions: topotecan monotherapy, ref Horita et al., 2015; cited from earlier work

COc1cccc(OCCCN)c1-c1cc(Nc2cnc(C#N)cn2)n[nH]1 [prexasertib]
rank of TOP1 inhibitor-drug pair by ExcessHSA (SCLC cells): 9

CNCc1ccc(-c2cc(-c3nc(-c4ccc(S(=O)(=O)C(C)C)cc4)cnc3N)on2)cc1 [M6620, berzosertib]
increase in TOP1-DPCs ([1]; M6620 pre-treatment (1 μM, 4 h), after 2-hour treatment with topotecan (1 μM)): 1.4 fold | topotecan-induced RPA32 phosphorylation ([2]; M6620 treatment): reduced the topotecan-induced RPA32 phosphorylation | S-phase arrest induced by TOP1 inhibition (DMS114 cells): abrogated the S-phase arrest induced by TOP1 inhibition | topotecan-induced replication block ([3]; M6620 added to topotecan): abrogated the replication block | rank of TOP1 inhibitor-drug pair by ExcessHSA (SCLC cells): 32 | plasma pharmacokinetics in combination [4]: appeared consistent with the individual agents | irinotecan induced pCHK1 (Ser345) (pCHK1 (Ser345)): blocks irinotecan induced pCHK1 in a dose- and time-dependent manner

CC(C)c1cc(-c2n[nH]c(=O)n2-c2ccc3c(ccn3C)c2)c(O)cc1O [ganetespib]
rank of TOP1 inhibitor-drug pair by ExcessHSA (SCLC cells): 5

COc1ccc2[nH]c3c(c2c1)CCN[C@]31CS[C@@H]2c3c(OC(C)=O)c(C)c4c(c3[C@H](COC1=O)N1[C@@H]2[C@H]2c3c(cc(C)c(OC)c3O)C[C@@H]([C@@H]1O)N2C)OCO4 [lurbinectedin]
confirmed ORR [5]: 22.2% | median DOR [5]: 4.7 months | patients with confirmed responses with DOR>6 months [5]: 11.7%

O=c1cc(-c2cccc3c2Sc2ccccc2S3)oc(N2CCOCC2)c1 [KU55933]
potentiation of topotecan-generated TOP1-DPCs ([1]; 1 μM pretreatment 4 h before topotecan 1 μM 2 h): neither an ATM inhibitor (KU55933) nor a DNA-PKcs inhibitor (VS984) potentiated topotecan-generated TOP1-DPCs

CC[C@@]1(O)C(=O)OCc2c1cc1n(c2=O)Cc2cc3c(CN(C)C)c(O)ccc3nc2-1 [topotecan]
phosphorylation of RPA at S33 ([2]; DMS114 cells, following exposure to topotecan): rapid phosphorylation of replication protein A (RPA) at S33 | replication velocity ([3]; within 30 minutes of topotecan treatment): significantly reduced replication velocity | plasma pharmacokinetics in combination [4]: appeared consistent with the individual agents | responses (proportion of patients) [6]: approximately 5%
